This assay in a line: Enzyme NEP Inhibition Assay: The assays were performed in 384-well white opaque plates at 37° C. using the fluorogenic peptide substrates at a concentration of 10 μM in Assay Buffer (NEP: 50 mM HEPES, pH 7.5, 100 mM NaCl, 0.01% polyethylene glycol sorbitan monolaurate (Tween-20), 10 μM ZnSO4; ACE: 50 mM HEPES, pH 7.5, 100 mM NaCl, 0.01% Tween-20, 1 μM ZnSO4). The respective enzymes were used at ….

Description: Enzyme NEP Inhibition Assay: The assays were performed in 384-well white opaque plates at 37° C. using the fluorogenic peptide substrates at a concentration of 10 μM in Assay Buffer (NEP: 50 mM HEPES, pH 7.5, 100 mM NaCl, 0.01% polyethylene glycol sorbitan monolaurate (Tween-20), 10 μM ZnSO4; ACE: 50 mM HEPES, pH 7.5, 100 mM NaCl, 0.01% Tween-20, 1 μM ZnSO4). […] Test compounds were added to the enzymes and incubated for 30 minute at 37° C. prior to initiating the reaction by the addition of substrate.

Regarding `O=C(O)C(=O)N[C@H](Cc1ccc(-c2ccccc2)cc1)CC(O)C(=O)O` (stereo partly specified), the inhibition constant Ki result is “in the range around 35.5 nM”.

For the origin of these results see ChEMBL document CHEMBL5725865, “Neprilysin inhibitors” (2018).
